Test in all cases: Kinase selectivity, scanMAX Kinase assay panel (DiscoverX), % control at 1 uM
Common to all, as to format: binding

Experiment [1] deals with T1, scanMAX Kinase assay panel (Homo sapiens, UniProt Q8NFD2).
T1 construct: purchased DiscoverX
T1 sequence (Q8NFD2 1-765): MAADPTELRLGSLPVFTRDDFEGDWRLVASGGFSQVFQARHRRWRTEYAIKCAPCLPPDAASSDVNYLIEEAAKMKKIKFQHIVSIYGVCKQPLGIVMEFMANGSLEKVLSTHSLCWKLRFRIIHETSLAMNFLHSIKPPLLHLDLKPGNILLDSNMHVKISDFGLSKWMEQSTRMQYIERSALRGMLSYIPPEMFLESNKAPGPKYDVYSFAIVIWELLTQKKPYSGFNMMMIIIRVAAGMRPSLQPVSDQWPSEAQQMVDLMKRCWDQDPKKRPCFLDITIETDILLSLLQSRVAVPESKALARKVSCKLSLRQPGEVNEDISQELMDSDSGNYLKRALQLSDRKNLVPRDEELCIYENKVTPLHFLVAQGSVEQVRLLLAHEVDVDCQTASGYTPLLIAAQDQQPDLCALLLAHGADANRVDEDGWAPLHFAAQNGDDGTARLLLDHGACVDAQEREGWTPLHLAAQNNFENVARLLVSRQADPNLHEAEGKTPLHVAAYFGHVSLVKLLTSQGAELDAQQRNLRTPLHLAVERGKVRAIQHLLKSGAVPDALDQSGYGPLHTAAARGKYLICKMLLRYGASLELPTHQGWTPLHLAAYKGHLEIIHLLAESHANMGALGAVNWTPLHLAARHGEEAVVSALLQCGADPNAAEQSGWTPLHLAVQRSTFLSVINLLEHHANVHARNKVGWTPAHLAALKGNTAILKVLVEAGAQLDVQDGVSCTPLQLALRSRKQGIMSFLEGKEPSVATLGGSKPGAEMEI
Particulars: ANKK1; 1 uM; read-out: Percent Control (%). In short, it runs like this:
(§1)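 Single-point screen at 1 uM compound in DMSO. Lower % control means stronger inhibition, with the cutoff for activity set at <35%.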

Experiment [2] concerns the target T2, scanMAX Kinase assay panel (Homo sapiens, UniProt Q6ZWH5).
T2 construct: purchased DiscoverX
T2 sequence (Q6ZWH5 1-1172): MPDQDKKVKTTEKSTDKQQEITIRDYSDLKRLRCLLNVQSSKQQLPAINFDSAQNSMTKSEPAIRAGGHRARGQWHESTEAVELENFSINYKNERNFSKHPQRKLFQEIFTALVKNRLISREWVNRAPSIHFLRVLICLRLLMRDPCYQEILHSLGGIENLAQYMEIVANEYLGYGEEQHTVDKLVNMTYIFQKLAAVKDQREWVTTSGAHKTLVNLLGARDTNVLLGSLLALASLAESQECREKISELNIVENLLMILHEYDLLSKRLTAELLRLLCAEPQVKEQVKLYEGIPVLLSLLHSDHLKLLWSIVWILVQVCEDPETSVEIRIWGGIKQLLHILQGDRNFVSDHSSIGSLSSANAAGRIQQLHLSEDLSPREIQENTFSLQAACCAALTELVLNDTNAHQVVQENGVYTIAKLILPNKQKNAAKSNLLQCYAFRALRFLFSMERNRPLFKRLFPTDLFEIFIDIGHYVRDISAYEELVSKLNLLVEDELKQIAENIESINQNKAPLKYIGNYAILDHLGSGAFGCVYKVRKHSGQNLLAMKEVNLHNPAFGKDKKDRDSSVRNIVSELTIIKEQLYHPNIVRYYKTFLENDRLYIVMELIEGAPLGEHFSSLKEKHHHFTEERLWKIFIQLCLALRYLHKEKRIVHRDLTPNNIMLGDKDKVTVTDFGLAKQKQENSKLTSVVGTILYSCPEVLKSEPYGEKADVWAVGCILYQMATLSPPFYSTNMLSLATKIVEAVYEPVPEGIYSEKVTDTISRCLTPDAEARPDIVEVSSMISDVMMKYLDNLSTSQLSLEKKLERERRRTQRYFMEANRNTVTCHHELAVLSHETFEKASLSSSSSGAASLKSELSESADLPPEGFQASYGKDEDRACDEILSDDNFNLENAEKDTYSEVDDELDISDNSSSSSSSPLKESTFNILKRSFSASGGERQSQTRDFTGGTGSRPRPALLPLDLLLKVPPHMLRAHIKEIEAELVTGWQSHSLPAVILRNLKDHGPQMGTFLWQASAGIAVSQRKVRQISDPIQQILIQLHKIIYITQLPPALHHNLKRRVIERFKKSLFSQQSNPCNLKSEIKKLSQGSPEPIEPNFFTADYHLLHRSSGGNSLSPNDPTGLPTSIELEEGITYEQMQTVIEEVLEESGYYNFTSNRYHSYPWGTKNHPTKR
Particulars: NEK10; 1 uM; read-out: Percent Control (%). Put shortly:
as §1

Experiment [3] concerns the target T3, scanMAX Kinase assay panel (Homo sapiens, UniProt Q96J92).
T3 construct: purchased DiscoverX
The following applies: WNK4; 1 uM; read-out: Percent Control (%). Put shortly: as §1

The target in experiment [4] is T4, scanMAX Kinase assay panel (Homo sapiens, UniProt P0C1S8).
T4 construct: purchased DiscoverX
Particulars: WEE2; 1 uM; read-out: Percent Control (%). In short, it runs like this: as §1

For experiment [5], the target named is T5, scanMAX Kinase assay panel (Homo sapiens, UniProt P78368).
T5 construct: purchased DiscoverX
The following applies: CSNK1G2; 1 uM; read-out: Percent Control (%). In short, it runs like this: as §1

Experiment [6] has as its target T6, scanMAX Kinase assay panel (Homo sapiens, UniProt Q8IW41).
T6 construct: purchased DiscoverX
T6 sequence (Q8IW41 1-473): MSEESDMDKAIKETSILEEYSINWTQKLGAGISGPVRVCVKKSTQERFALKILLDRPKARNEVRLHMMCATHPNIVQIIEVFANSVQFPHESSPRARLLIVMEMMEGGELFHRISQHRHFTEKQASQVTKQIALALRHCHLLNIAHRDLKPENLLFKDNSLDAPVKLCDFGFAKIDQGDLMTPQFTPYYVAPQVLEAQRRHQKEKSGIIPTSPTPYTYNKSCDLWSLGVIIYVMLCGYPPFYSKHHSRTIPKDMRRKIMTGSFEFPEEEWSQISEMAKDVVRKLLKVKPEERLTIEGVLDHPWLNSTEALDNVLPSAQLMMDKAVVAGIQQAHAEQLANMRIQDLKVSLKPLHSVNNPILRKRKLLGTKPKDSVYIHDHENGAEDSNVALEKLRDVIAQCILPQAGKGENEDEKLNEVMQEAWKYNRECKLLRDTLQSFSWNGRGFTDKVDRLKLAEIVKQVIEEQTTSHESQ
The following applies: MAPKAPK5; 1 uM; read-out: Percent Control (%). In short, it runs like this:
as §1

SMILES strings stand for the structures.

T3 sequence (Q96J92 whole entry): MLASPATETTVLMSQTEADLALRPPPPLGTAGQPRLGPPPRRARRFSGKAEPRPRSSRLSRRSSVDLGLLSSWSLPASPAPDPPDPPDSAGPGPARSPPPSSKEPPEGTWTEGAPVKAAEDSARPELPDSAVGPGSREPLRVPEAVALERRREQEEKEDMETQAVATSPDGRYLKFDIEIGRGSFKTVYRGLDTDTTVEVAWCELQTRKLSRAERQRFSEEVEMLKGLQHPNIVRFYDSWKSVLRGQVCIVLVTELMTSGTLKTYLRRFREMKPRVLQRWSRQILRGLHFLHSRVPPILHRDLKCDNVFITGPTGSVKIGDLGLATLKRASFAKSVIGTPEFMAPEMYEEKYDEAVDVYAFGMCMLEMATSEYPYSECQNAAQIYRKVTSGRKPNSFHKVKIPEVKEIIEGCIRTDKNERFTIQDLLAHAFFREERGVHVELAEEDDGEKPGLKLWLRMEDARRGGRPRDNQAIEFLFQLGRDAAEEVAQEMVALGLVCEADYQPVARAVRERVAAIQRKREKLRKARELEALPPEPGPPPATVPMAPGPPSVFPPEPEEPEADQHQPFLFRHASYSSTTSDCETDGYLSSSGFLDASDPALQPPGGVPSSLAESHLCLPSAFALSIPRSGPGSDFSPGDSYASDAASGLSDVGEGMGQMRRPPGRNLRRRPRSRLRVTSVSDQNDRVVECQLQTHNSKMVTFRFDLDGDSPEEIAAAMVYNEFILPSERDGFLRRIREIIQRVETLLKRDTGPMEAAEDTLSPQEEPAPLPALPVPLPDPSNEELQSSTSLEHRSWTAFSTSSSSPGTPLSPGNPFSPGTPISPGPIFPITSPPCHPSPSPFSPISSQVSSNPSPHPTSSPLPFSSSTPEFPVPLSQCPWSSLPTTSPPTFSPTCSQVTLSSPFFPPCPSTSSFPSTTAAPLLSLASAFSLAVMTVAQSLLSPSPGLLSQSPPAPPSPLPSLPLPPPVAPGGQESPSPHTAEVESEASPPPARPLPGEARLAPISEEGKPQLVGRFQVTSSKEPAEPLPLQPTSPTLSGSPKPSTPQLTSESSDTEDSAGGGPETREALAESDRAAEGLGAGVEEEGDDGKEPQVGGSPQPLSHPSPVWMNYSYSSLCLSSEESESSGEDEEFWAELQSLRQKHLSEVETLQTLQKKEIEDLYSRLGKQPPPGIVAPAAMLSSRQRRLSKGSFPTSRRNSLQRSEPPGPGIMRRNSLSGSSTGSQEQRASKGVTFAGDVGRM
T4 sequence (P0C1S8 whole entry): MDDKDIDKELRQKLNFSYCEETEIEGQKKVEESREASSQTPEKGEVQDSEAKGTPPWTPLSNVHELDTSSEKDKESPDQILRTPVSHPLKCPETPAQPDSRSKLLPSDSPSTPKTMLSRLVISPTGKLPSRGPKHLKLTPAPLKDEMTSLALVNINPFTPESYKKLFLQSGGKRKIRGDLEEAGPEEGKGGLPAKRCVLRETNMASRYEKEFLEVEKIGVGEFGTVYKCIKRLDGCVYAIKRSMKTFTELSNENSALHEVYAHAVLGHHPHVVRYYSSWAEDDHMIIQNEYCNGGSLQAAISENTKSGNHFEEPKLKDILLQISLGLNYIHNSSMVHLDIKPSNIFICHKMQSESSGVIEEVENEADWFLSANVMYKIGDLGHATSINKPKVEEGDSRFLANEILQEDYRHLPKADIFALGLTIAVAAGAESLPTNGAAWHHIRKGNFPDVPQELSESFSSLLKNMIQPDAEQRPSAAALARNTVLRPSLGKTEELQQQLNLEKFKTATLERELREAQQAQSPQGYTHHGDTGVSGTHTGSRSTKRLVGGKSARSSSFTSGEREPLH
T5 sequence (P78368 whole entry): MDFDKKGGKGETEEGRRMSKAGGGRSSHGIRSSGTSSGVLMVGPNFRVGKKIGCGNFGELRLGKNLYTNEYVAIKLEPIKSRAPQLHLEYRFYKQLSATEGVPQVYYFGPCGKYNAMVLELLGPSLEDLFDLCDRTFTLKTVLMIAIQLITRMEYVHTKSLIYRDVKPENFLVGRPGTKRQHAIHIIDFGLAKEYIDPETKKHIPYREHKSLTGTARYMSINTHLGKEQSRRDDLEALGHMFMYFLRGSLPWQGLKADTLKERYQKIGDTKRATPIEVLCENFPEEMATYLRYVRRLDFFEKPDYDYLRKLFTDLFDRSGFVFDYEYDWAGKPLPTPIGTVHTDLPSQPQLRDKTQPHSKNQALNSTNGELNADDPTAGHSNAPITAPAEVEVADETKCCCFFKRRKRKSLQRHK

In the case of `Cc1ccc(C(=O)Nc2ccc(CN3CCN(C)CC3)c(C(F)(F)F)c2)cc1C#Cc1cnc2c(Nc3cnn(C)c3)cccn12` [Example 1, 4-methyl-3-((8-((1-methyl-1H-pyrazol-4-yl)amino)imidazo[1,2-a]pyridin-3-yl)ethynyl)-N-(4-((4-methylpiperazin-1-yl)methyl)-3-(trifluoromethyl)phenyl)benzamide], the remaining binding at 1 µM in experiment [1] was 4%; in experiment [2], 100%; in experiment [3], 96%; in experiment [4], 60%; in experiment [5], 91%; in experiment [6] it was 100%.
With `Cc1cn(-c2cc(NC(=O)c3ccc(C)c(C#Cc4cnc5c(Nc6cnn(C)c6)cccn45)c3)cc(C(F)(F)F)c2)cn1` [Example 12, 4-methyl-N-(3-(4-methyl-1H-imidazol-1-yl)-5-(trifluoromethyl)phenyl)-3-((8-((1-methyl-1H-pyrazol-4-yl)amino)imidazo[1,2-a]pyridin-3-yl)ethynyl)benzamide], the remaining binding at 1 µM in experiment [1] turned out to be 100%; in experiment [2], 100%; in experiment [3], 100%; in experiment [4] it was 80%; in experiment [5], 94%; in experiment [6], 100%.
In the case of `Cc1ccc(NC(=O)C2(C(=O)Nc3ccc(F)cc3)CC2)cc1C#Cc1cnc2c(Nc3cnn(C(C)C)c3)cccn12` [Example 78], the remaining binding at 1 µM in experiment [1] is 97%; in experiment [2] it was 100%; in experiment [3], 100%; in experiment [4] it was 100%; in experiment [5], 100%; in experiment [6] it was 100%.

The record behind these values is US10870647B2, “Imidazopyridine derivative, method for preparing same, and pharmaceutical composition containing same as active ingredient for preventing or treating cancer” (DAEGU-GYEONGBUK MEDICAL INNOVATION FOUNDATION, priority 2016, dated 2020).
